Bounds are passed on as bounds.

Broadly, the melting point is the temperature of the solid-liquid transition. For the compound `Nc1ccc2c(c1)C(=O)c1cc(N)ccc1C2=O`, the melting point was in the range of 337 to 338 °C.

`O=c1[nH]c2c(Cl)ncnc2n1CCN1CCC(Nc2nc3ccccc3n2Cc2ccc(F)cc2)CC1`: the melting point was found to be 266 °C.

`NS(=O)(=O)c1ccc(S(=O)(=O)N2CCC(=O)CC2)cc1Cl`: the melting point was 195 to 196 °C.

As to `CCc1nn(C2CCCC2)c2cc(C(=O)NCCC(=O)NO)ccc12`, the melting point lay in the range of 166 to 169 °C.

As for `COc1c(NC(=O)CC(C)(C)C)c(C)c(C)c2c1C(c1ccc(C(C)C)cc1)CO2` (centres undefined), the melting point fell in the range of 161 to 162 °C.

As to `NC(Oc1ccccc1)C(O)CCCNc1ccc(Br)cc1` (centres undefined), the melting point lay in the range of 106 to 110 °C.

In turn, `N#Cc1ccc(Nn2cnnc2)cc1-c1ccccc1` registered a melting point of 181 to 182 °C.

Consider `CN(C(=O)CCCOc1ccc2nc3n(c(=O)c2c1)CS(=O)(=O)N3)C1CCCCC1`, for which the melting point was more than 330 °C.

In the case of `O=S1N=C(NCCCN(Cc2ccccc2)c2ccccn2)C(NCc2ccccn2)=N1` (centres undefined), the melting point lay within 139 to 140 °C.

Take `Oc1ccc(-n2nnnc2C2CC2)cc1`: the melting point was found to be 184 °C.

For `CCCn1cc(-c2ccc3cc4c(cc3c2)C(C)(C)CCC4(C)C)cc1C(=O)O`, the melting point fell in the range of 143 to 145 °C.

Consider `CC(Oc1ccc(Cl)cc1Cl)c1nnc(N=C=O)s1` (centres undefined), for which the melting point fell in the range of 176 to 179 °C.

In turn, `CC(C)(C)NC(=O)[C@@H]1CCCN1C(=O)[C@@H](O)[C@H](Cc1ccccc1)NC(=O)[C@H](CC(N)=O)NC(=O)COc1ccc(NC(=O)CN2CCOCC2)cc1` showed a melting point of 121 to 127 °C.

Take `CO[C@]1(c2cc(F)cc(S(=O)(=O)c3ccc(/C(C)=N/O)cc3)c2)CCO[C@@H](C)C1`: the melting point came to 149 °C.

In the case of `O=C(c1ccc(Cc2c(Cl)cc([N+](=O)[O-])cc2Cl)cc1)c1cnc(Cl)c(Cl)c1`, the melting point was 129 to 131 °C.

`COC(=O)[C@H](Cc1ccc(OCc2ccccc2)cc1)NC(=O)C(CSC(C)=O)Cc1ccccc1` (some centres undefined) returned a melting point of 92 to 93 °C.

`Cc1cc(S(C)(=O)=O)c(S(C)(=O)=O)cc1C(=O)N=C(N)N` displayed a melting point of more than 240 °C.

Take `CCCC1(S(=O)(=O)CCC(=O)OC)c2ccccc2-c2ccccc21`: the melting point lay within 74 to 77 °C.

`COC(=O)c1cc2cc(OC)ccc2[nH]1`: the melting point was in the range of 178 to 181 °C.

On to `S=C(NCc1ccccc1)Nc1nccs1`, for which the melting point was in the range of 165 to 167 °C.

The compound `COc1ccc(Nc2nc(NC3CCCCCC3)nc(Oc3ccc(C(C)=O)cc3Cl)n2)cc1Cl` returned a melting point of 186 to 196 °C.

The compound `C#CC1(CO)C=CC(n2cc(C)c(=O)[nH]c2=O)O1` (centres undefined) gave a melting point of 207 to 209 °C.

The compound `COc1cc2c(Cl)c(C#N)cnc2cc1N1CCN(C)CC1` yielded a melting point of 177 to 179 °C.

In turn, `CCOC(=O)c1[nH]cnc1C(F)(F)F` came in with a melting point of 184 to 186 °C.

In turn, `O=C1CCCc2c(F)cc(F)cc21` came in with a melting point of 89 to 91 °C.

The compound `CCN(CC)C(=O)c1nc(C)c(-c2ccncc2)s1` yielded a melting point of 87.5 to 89 °C.

Turning to `CC(=O)c1sc(N2CCN(CC3CC3)C2=O)nc1C`, the melting point was 103 to 104 °C.

Turning to `CC(Nc1nc(-c2ccccc2)cs1)c1ccc(COc2ccc(CC(=O)O)cc2)cc1` (centres undefined), the melting point was in the range of 116 to 118 °C.

Consider `COc1cc2cc(OCCCN3CCCCC3)ccc2c2ccc(OCCCN3CCCCC3)cc12`, for which the melting point lay within 118 to 120 °C.

As for `CC(C)(C)C1COC1(Cn1cncn1)c1ccc(F)cc1` (centres undefined), the melting point worked out at 128 °C.

Turning to `COc1ccnc(NC(N)=S)c1`, the melting point lay within 214 to 217 °C.

`Cn1cc(-c2ccccc2)c(=O)c(-c2ccc(Cl)c(C(F)(F)F)c2)c1` returned a melting point of 154 to 155 °C.

`CCCCCCCC(=O)NCCCCCOS(C)(=O)=O` gave a melting point of 67 to 68 °C.

Regarding `O=C1C=CC(c2ccccc2)C2(c3ccccc3)CN(C(=O)Cc3ccccc3)CC12` (racemic), the melting point was found to be 188 °C.

`CCCCCCCCCCCCCCc1ccc(O)cc1`: the melting point lay within 70 to 71 °C.

In turn, `COC(=O)c1ccc(Nc2ccc(C#N)cc2N)cc1` gave a melting point of 164 to 165 °C.

`Clc1ccc(-c2nccs2)cc1` came in with a melting point of 169 to 170 °C.

For the compound `CCOC(=O)N1CCC2(CC1)N=C(N)c1c(F)ccc(Cl)c1N2`, the melting point fell in the range of 182 to 184 °C.

Regarding `O=C(Nc1ccccc1)C1Cc2cc(Br)cc3[nH]c(=O)c(=O)n1c23` (centres undefined), the melting point is more than 300 °C.

Consider `NC1=NS(=O)(=O)N=C1NCCCN(Cc1ccccc1)c1ccccn1`, for which the melting point is 192 to 193 °C.

In the case of `CNC(=S)NCCOCc1c[nH]cn1`, the melting point lay within 96 to 98 °C.

`CC(C)NCC(O)COc1cc(-c2ccccc2)nc2ccccc12` (racemic) came in with a melting point of 109 to 111 °C.

For the compound `CN1CCN=C1C(C#N)=NO`, the melting point is 216 °C.

`C=CCc1cc(OCC)c2c(c1OC)S(=O)(=O)N(Cc1ccccc1)C2=O`: the melting point lay within 92 to 94 °C.

Consider `O=C(NCCO)c1cccc(-c2ccc3c(c2)N(c2ccc(Cl)cc2Cl)CC3)c1`, for which the melting point lay within 140 to 141 °C.

`COc1ccc(-c2nc(-c3ccc(Cl)cc3)ncc2C(=O)N2CCOCC2)cc1OC` gave a melting point of 168 °C.

In turn, `Cc1ccc(C(CO)c2ccc(C(C)C)cc2)c(O)c1C` (centres undefined) gave a melting point of 83 to 84 °C.

`CCCc1nc(Nc2cccc(C(C)C)c2)nc(NC2CCN(S(C)(=O)=O)CC2)n1` yielded a melting point of 80.4 to 81.8 °C.

`CNC(=O)C1OC(n2cnc3c(NCc4cc(Cl)ccc4OCc4cc(C)no4)ncnc32)C(O)C1NC(=O)OC(C)(C)C` (centres undefined) came in with a melting point of 135 to 137 °C.

In turn, `CCOC(=S)C(C=P(c1ccccc1)(c1ccccc1)c1ccccc1)C(=O)C(F)(F)F` (centres undefined) returned a melting point of 190 °C.

As for `O=C1Cc2c(OCCNCc3ccccc3)ccc(Cl)c2N1`, the melting point fell in the range of 161 to 163 °C.

`COC(=O)c1ccc(S(=O)(=O)Cc2c(O)ccc3c2CCCC3=O)cc1` gave a melting point of 132 to 134 °C.

For the compound `COC(=O)c1sccc1S(=O)(=O)NC(=O)Nc1nc(C)cc(OC)n1`, the melting point lay within 165 to 173 °C.

On to `NC1CSC(c2cccs2)CNC1=O` (centres undefined), for which the melting point was found to be 157 °C.

With `ClCN1C=C(Cl)C(Cl)=CN1`, the melting point was 69 to 70 °C.

Turning to `Cc1cccc(N2CCN(CCCCNC(=O)c3cc4ccccc4o3)CC2)c1`, the melting point was 119 to 120 °C.

In turn, `CC(=O)c1ccccc1NC(c1c(Cl)cccc1Cl)C1CC1` (centres undefined) came in with a melting point of 116 °C.

As to `OC1CCCN(CCCOc2ccc3cc(-c4n[nH]c5cc(-c6ccccc6)sc45)[nH]c3c2)C1` (centres undefined), the melting point was 213 to 216 °C.

Compound `O=C(O)CC1c2ccccc2CCc2ccccc21` gave a melting point of 163 to 165 °C.

For the compound `O=C(O)[C@H]1CC[C@H](N2CCC(Oc3ccc(Cl)c(Cl)c3)CC2)CC1`, the melting point was 167 to 168 °C.

Regarding `N#CCCNC(=S)C1=CC(CF)(CF)Oc2ccc(C(F)(F)C(F)(F)C(F)(F)F)cc21`, the melting point fell in the range of 94 to 95 °C.

The compound `COc1c(F)cc(-c2c(-c3ccc(S(C)(=O)=O)cc3)cnn(-c3ccc(F)c(Cl)c3)c2=O)cc1F` yielded a melting point of 195 to 197 °C.

In turn, `CN(C)S(=O)(=O)c1cc2c(c(Cl)c1Cl)OC(C(=O)O)C2` (centres undefined) came in with a melting point of 154 °C.

`COC(C)c1cc([N+](=O)[O-])ccc1C` (centres undefined): the melting point fell in the range of 35 to 37 °C.

In turn, `COc1cc(/C=C/c2ccc(N(C)C)cc2)cc(OC)c1OC` displayed a melting point of 114 to 115 °C.

`S=C(NCC1CCCCC1)NCC1CCCCC1` had a melting point of 124 to 125 °C.

On to `CCc1cc(C#N)cc2c(NCc3ccc(OC)c(Cl)c3)c(CO)cnc12`, for which the melting point lay within 188 to 189 °C.

Turning to `CCOC(=O)c1nc2c(=O)[nH]c3cc(C(F)(F)F)ccc3n2c1CP(=O)(O)O`, the melting point was more than 250 °C.

Regarding `O=C(O)COC1=C(Cc2ccc3ccccc3c2)C(=O)CCC1`, the melting point lay in the range of 170 to 171 °C.

`Cc1nccn1C(=O)c1c(Cl)cccc1Cl`: the melting point is 116 to 119 °C.

With `CC(C)(C)OC(=O)NC(Cc1ccccc1)C(O)CNCC(O)C(Cc1ccccc1)NC(=O)OC1c2ccccc2CC1O` (centres undefined), the melting point was in the range of 131 to 133 °C.

In turn, `CS(=O)(=O)OCc1cc(-c2ccc3c(c2)CCO3)nn(CC2CC2)c1=O` came in with a melting point of 108 to 111 °C.

`COc1cc2c(c(C(C)C)c1OC)C(=O)N(CCl)S2(=O)=O` returned a melting point of 117 to 119 °C.

Turning to `O=C1CCC(c2ccc3c(c2)NC(=O)CO3)=NN1`, the melting point is 274 to 275 °C.

Compound `CNC(=O)C(=NOC)c1ccccc1COc1ncc(Sc2ccccc2)cc1Cl` yielded a melting point of 84 to 86 °C.

As for `CC(=O)Oc1c(C)cc(C)cc1CCc1cc(C)cc(C)c1OC(C)=O`, the melting point was 130 to 131 °C.

As to `Cc1oc(-c2ccccc2)nc1CCOc1cccc2c1ccn2C(C)C(=O)O` (centres undefined), the melting point was in the range of 157 to 159 °C.

In turn, `COc1ccc(C(=O)C=Cc2ccccc2F)cc1` returned a melting point of 92 to 93 °C.

With `O=C(c1ccc(Br)cc1)C(Br)C(Br)c1cccc(Br)c1` (centres undefined), the melting point fell in the range of 150 to 152 °C.

On to `CCOP(=O)(OCC)C(F)c1ccc(NC(=O)CCc2oc(-n3cnc4ccccc43)nc2-c2ccc(Cl)cc2)cc1` (centres undefined), for which the melting point lay in the range of 152 to 155 °C.

The compound `Nc1ccc(OCCCCOc2ccc(N)cc2[N+](=O)[O-])c([N+](=O)[O-])c1` had a melting point of 194 to 196 °C.

`COc1ccc(-c2cncc(OC3SCC(OC(C)=O)C(OC(C)=O)C3OC(C)=O)c2)cn1` (centres undefined) yielded a melting point of 172 °C.

As for `C=C1CC(Cn2cc(C)c(=O)[nH]c2=O)(c2ccc(-c3ccccc3)cc2)OC1=O` (centres undefined), the melting point lay in the range of 217 to 219 °C.

In turn, `Cc1ccc(C(=O)c2noc(CC(=O)O)n2)cc1` displayed a melting point of 140 to 141 °C.

In the case of `CC(CF)(CF)C(O)C(Oc1ccc(Cl)cc1)n1cncn1` (centres undefined), the melting point was in the range of 97 to 102 °C.

Compound `Oc1ccc(Nc2ncc3ncc(-c4ccc(O)cc4)cc3n2)cc1` displayed a melting point of more than 268 °C.

The compound `CCOCn1c(Cl)c(Cl)c(C#N)c1-c1ccc(Cl)c(Cl)c1` yielded a melting point of 128 to 130 °C.

The compound `O=c1cc(-c2ccoc2)c2ccc(Sc3cc(F)cc(-c4ccccc4)c3)cc2o1` yielded a melting point of 122 to 124 °C.

The compound `O=C(c1cc(C(F)(F)F)nc2c(Cl)cc(Cl)cc12)c1cc(C(F)(F)F)nc2c(Cl)cc(Cl)cc12` registered a melting point of 193 to 194 °C.
